Read-outs that look alike come from different tables or passages of the source. One block for each compound: values may come before it.
Experiments:
[1] = literature value, cited from earlier work
[2] = Characteristic curvature (Cc) by salinity phase scans with reference surfactant C9E5; format: physicochemical; conditions: for Cc (characteristic curvature): methodology of Example 1, C9E5 as reference surfactant; for dS*/dx: polar oil in mixtures with C9E5, heptane (cyclohexane for CBD) as oil
Description: The characteristic curvature (Cc) of the candidate hydrophilic linker with extremely negative Cc (Cc<−5) was determined following the mixed reference and test surfactant method used by Zarate et al.. […] The salinity phase scans were conducted by vortex-mixing 2 mL of the aqueous surfactant solution, containing a set value of sodium chloride (g NaCl/100 mL of aqueous surfactant solution or % w/v NaCl) with 2 mL of n-heptane at room temperature in 2-dram vials sealed with a silicone-lined cap. […] The difference between the initial volume added to the vial (2 mL), and the excess phase volume was considered the volume solubilized. The ratio between the volume solubilized (in mL) and the total mass of surfactant mixture (0.2 g) was reported as the solubilization parameter (SP) for the given phase at the set salinity.

[3] = cited from earlier work; for Polar area: from ChemSpider; for Dipole moment: from Tantishaiyakul et al. [33]
[4] = adapted from [21]; cited from earlier work
[5] = from Drugbank, nonylphenol from ChemSpider

Compound: Sorbitan monooleate [Sorbitan monooleate (Span 80)]
- Cc (characteristic curvature) [1]: +5.0 ± 1^

Compound: CCOC(=O)c1ccc(N)cc1 [Benzocaine]
- Cc (characteristic curvature) [2]: +1.6
- dS*/dx [2]: −27 % w/v NaCl

Compound: C=CCc1ccc(O)c(OC)c1 [Eugenol]
- Cc (characteristic curvature) [2]: +2.8
- dS*/dx [2]: −37 % w/v NaCl
- Polar area [3]: 29 Å^2
- Number of H-acceptors [3, 5]: 2
- Number of H-donors [3, 5]: 1
- pKa [3, 5]: Neutral
- Dipole moment [3]: 2.8 Debye

Compound: Nonylphenol
- Cc (characteristic curvature) [2]: +7.2
- Polar area [3]: 20 Å^2
- Number of H-acceptors [3, 5]: 2
- Number of H-donors [3, 5]: 1
- pKa [3, 5]: Neutral
- Dipole moment [3]: 1.6 Debye
- logP ([3]; octanol-water, from Drugbank, nonylphenol from ChemSpider): 5.8

Compound: C=C(C)[C@@H]1CCC(C)=C[C@H]1c1c(O)cc(CCCCC)cc1O [Cannabidiol (CBD), Cannabidiol]
- Cc (characteristic curvature) [2]: +2.6
- dS*/dx [2]: −38 % w/v NaCl
- Polar area [3]: 40 Å^2
- Aqueous solubility [3, 5]: 0.0013 wt %
- Number of H-acceptors [3, 5]: 2
- Number of H-donors [3, 5]: 2
- pKa [3, 5]: Neutral
- Dipole moment [3]: 1.9 Debye

- Cc (characteristic curvature) [2]: +4.9
Compound: CC(C)Cc1ccc(C(C)C(=O)O)cc1 (racemic) [Ibuprofen]
- Polar area [3]: 37 Å^2
- Number of H-acceptors [3, 5]: 2
- Number of H-donors [3, 5]: 1
- Dipole moment [3]: 1.9 Debye

Compound: Disodium stearoyl capryl glutamate
- vs/as [4]: 7.9 Å
- Cc (characteristic curvature) [1]: −5 ± 0.2

Compound: CCCCCCCC/C=C\CCCCCCCC(=O)[O-].[Na+] [Sodium oleate]
- L [4]: 30 Å
- vs/as [4]: 8.4 Å
- Cc (characteristic curvature) [1]: −1.7 ± 0.1

Compound: CCCCCCCC/C=C\CCCCCCCC(=O)OCCOCC(OCCO)C1OCC(OCCO)C1OCCO (centres unmarked) [Tween 80]
- L [4]: 34 Å
- vs/as [4]: 25.8 Å
- Cc (characteristic curvature) [1]: −3.0 ± 0.7

Compound: CCCCCCCC(=O)[O-].[Na+] [Sodium octanoate]
- L [4]: 12 Å
- vs/as [4]: 4.6 Å
- Cc (characteristic curvature) [1]: −2.1 ± 0.1

Compound: Sorbitan monolaurate [Sorbitan monolaurate, Span 20]
- Cc (characteristic curvature) [1]: +3.5 ± 0.8

Compound: CCCCCCCC/C=C\CCCCCCCC(=O)OCC(O)CO (centres unmarked) [Glycerol monooleate]
- Cc (characteristic curvature) [1]: +6.6 ± 1.5
- Cc (characteristic curvature) ([1]; listed as Peceol™): +6.6

Compound: CCCCCCCC/C=C\CCCCCCCC(=O)O [Oleic acid]
- Cc (characteristic curvature) [1]: 0 ± 0.1

Compound: Sucrose palmitate
- Cc (characteristic curvature) [1]: −0.8 ± 0.2

Compound: Sucrose distearate
- Cc (characteristic curvature) [1]: +4 ± 0.2
